Measured values: patent US8987195B2 (priority 2012, dated 2015)
pIC50: −log10 of the molar value.

molecular target: HCV NS3/4A protease genotype 1b (Hepatitis C virus genotype 1b, UniProt P26663); assay: HCV NS3/4A protease time-resolved fluorescence (TRF) assay, Ki against genotype 1b; format: biochemical; conditions: IC50 [gt-1b], NS3/4A protease TRF assay, genotype 1b enzyme 0.2 nM
Protocol: Measuring NS3/4A Inhibitory Activity (Ki) Against Genotype 1b, Against A156T Mutants and Against Genotype 3a
One assay for measuring inhibitory activity is HCV NS3 protease time-resolved fluorescence (TRF) assay as described below and in Mao et al., Anal. Biochem. 373:1-8, 2008 and International Patent Application Publication WO 2006/102087. A NS3 protease assay can be performed, for example, in a final volume of 20 μl assay buffer containing 50 mM HEPES, pH 7.5, 150 mM NaCl, 15% glycerol, 0.15% TRITON X-100, 10 mM DTT, and 0.1% PEG 8000. NS3 and NS4A protease is pre-incubated with various concentrations of inhibitors in DMSO for 30 min. The reaction is initiated by adding the TRF peptide substrate (final concentration 25 nM). NS3 mediated hydrolysis of the substrate was run for 2.5 hours at room temperature. Product fluorescence is detected using A Pherastar Plus plate reader (BMG) or Envision (Perkin Elmer Life and Analytical Sciences with excitation at 340 nm and emission at 615 nm using the appropriate delay time optimized for the europium fluorescence probe. Testing concentrations of different enzyme forms are selected to result in a signal to background ratio (S/B) of 10-30. IC50 values are derived using a standard four-parameter fit to the data. Ki values are derived from IC50 values using the following formula, IC50=Ki(1+[S]/KM), Eqn (1), where [S] is the concentration of substrate peptide in the reaction and KM is the Michaelis constant. See P. Gallinari et al., 38 BIOCHEM. 5620-32 (1999); P. Gallinari et al., 72 J. VIROL. 6758-69 (1998); M. Taliani et al., 240 ANAL. BIOCHEM. 60-67 (1996); Mao et al., Analytical Biochemistry 373: 1-8, 2008.
The assay described above was run against genotype 1b at a concentration of 0.2 nM, against A156T mutant strains at a concentration of 0.4 nM, and against genotype 3a at a concentration of 0.025 nM.

Row | SMILES | pIC50
1 | COc1cc(Cl)c2nc(C(F)(F)F)c3c(c2c1)CC[C@]1(C[C@H]2C(=O)N[C@]4(C(=O)NS(=O)(=O)C5(C)CC5)C[C@H]4/C=C\CCCCC[C@H](NC(=O)OC(C)(C)C(F)(F)F)C(=O)N2C1)O3 [Example 400, 1,1,1-trifluoro-2-methylpropan-2-yl [(2R,6S,12Z,13aS,14aR,16aS)-7′-chloro-9′-methoxy-14a-{[(1-methylcyclopropyl)sulfonyl]carbamoyl}-5,16-dioxo-5′-(trifluoromethyl)-1,1′,2′,5,6,7,8,9,10,11,13a,14,14a,15,16,16a-hexadecahydrospiro[cyclopropa[e]pyrrolo[1,2-a][1,4]diazacyclopentadecine-2,3′-pyrano[2,3-c]quinolin]-6-yl]carbamate] | 10.28
2 | COc1cc(Cl)c2nc(C(F)(F)F)c3c(c2c1)CC[C@]1(C[C@H]2C(=O)N[C@]4(C(=O)NS(=O)(=O)C5(C)CC5)C[C@H]4/C=C\CCCCC[C@H](NC(=O)OCC(C)(C)C)C(=O)N2C1)O3 [Example 401, 2,2-dimethylpropyl [(2R,6S,12Z,13aS,14aR,16aS)-7′-chloro-9′-methoxy-14a-{[(1-methylcyclopropyl)sulfonyl]carbamoyl}-5,16-dioxo-5′-(trifluoromethyl)-1,1′,2′,5,6,7,8,9,10,11,13a,14,14a,15,16,16a-hexadecahydrospiro[cyclopropa[e]pyrrolo[1,2-a][1,4]diazacyclopentadecine-2,3′-pyrano[2,3-c]quinolin]-6-yl]carbamate] | 10.24
3 | COc1ccc2nc(C(F)(F)F)c3c(c2c1)[C@](C)(O)C[C@]1(C[C@H]2C(=O)N[C@]4(C(=O)NS(=O)(=O)C5(C)CC5)C[C@H]4/C=C\CCCCC[C@H](NC(=O)OCC(C)C)C(=O)N2C1)O3 [Example 505, 2-methylpropyl [(1′R,2S,6S,12Z,13aS,14aR,16aS)-1′-hydroxy-9′-methoxy-1′-methyl-14a-{[(1-methylcyclopropyl)sulfonyl]carbamoyl}-5,16-dioxo-5′-(trifluoromethyl)-1,1′,2′,5,6,7,8,9,10,11,13a,14,14a,15,16,16a-hexadecahydrospiro[cyclopropa[e]pyrrolo[1,2-a][1,4]diazacyclopentadecine-2,3′-pyrano[2,3-c]quinolin]-6-yl]carbamate] | 10.80
4 | COc1ccc2nc(C(F)(F)F)c3c(c2c1)[C@](C)(O)C[C@]1(C[C@H]2C(=O)N[C@]4(C(=O)NS(=O)(=O)C5(C)CC5)C[C@H]4/C=C\CCCCC[C@H](NC(=O)OCC(C)(C)C)C(=O)N2C1)O3 [Example 506, 2,2-dimethylpropyl [(1′R,2S,6S,12Z,13aS,14aR,16aS)-1′-hydroxy-9′-methoxy-1′-methyl-14a-{[(1-methylcyclopropyl)sulfonyl]carbamoyl}-5,16-dioxo-5′-(trifluoromethyl)-1,1′,2′,5,6,7,8,9,10,11,13a,14,14a,15,16,16a-hexadecahydrospiro[cyclopropa[e]pyrrolo[1,2-a][1,4]diazacyclopentadecine-2,3′-pyrano[2,3-c]quinolin]-6-yl]carbamate] | 10.82

same assay, conditions: IC50 [gt-1b], NS3/4A protease TRF assay, genotype 1b enzyme 0.2 nM; HCl salt

Row | SMILES | pIC50
5 | CCc1nc2ccc(OCCCN3CCOCC3)cc2c2c1O[C@]1(CC2)C[C@H]2C(=O)N[C@]3(C(=O)NS(=O)(=O)C4(C)CC4)C[C@H]3/C=C\CCCCC[C@H](NC(=O)OCC(C)(C)C)C(=O)N2C1 [Example 521, 2,2-dimethylpropyl {(2R,6S,12Z,13aS,14aR,16aS)-5′-ethyl-14a-{[(1-methylcyclopropyl)sulfonyl]carbamoyl}-9′-[3-(morpholin-4-yl)propoxy]-5,16-dioxo-1,1′,2′,5,6,7,8,9,10,11,13a,14,14a,15,16,16a-hexadecahydrospiro[cyclopropa[e]pyrrolo[1,2-a][1,4]diazacyclopentadecine-2,3′-pyrano[2,3-c]quinolin]-6-yl}carbamate] | 11.40

same assay, conditions: IC50 [gt-1b], NS3/4A protease TRF assay, genotype 1b enzyme 0.2 nM; K+ salt

Row | SMILES | pIC50
6 | COc1ccc2nc(C(F)F)c3c(c2c1)CC[C@]1(C[C@H]2C(=O)NC4(C(=O)NS(=O)(=O)C5(C)CC5)C[C@H]4/C=C\CCCCC[C@H](NC(=O)O[C@@H]4C[C@@H]5C[C@@H]5C4)C(=O)N2C1)O3 (stereo partly drawn) [Example 503, (1R,3r,5S)-bicyclo[3.1.0]hex-3-yl [(2R,6S,12Z,13aS,14aR,16aS)-5′-(difluoromethyl)-9′-methoxy-14a-{[(1-methylcyclopropyl)sulfonyl]carbamoyl}-5,16-dioxo-1,1′,2′,5,6,7,8,9,10,11,13a,14,14a,15,16,16a-hexadecahydrospiro[cyclopropa[e]pyrrolo[1,2-a][1,4]diazacyclopentadecine-2,3′-pyrano[2,3-c]quinolin]-6-yl]carbamate] | 11.15
7 | COc1ccc2nc(C(F)F)c3c(c2c1)CC[C@]1(C[C@H]2C(=O)N[C@]4(C(=O)NS(=O)(=O)C5(C)CC5)C[C@H]4/C=C\CCCCC[C@H](NC(=O)OCC4CCC4)C(=O)N2C1)O3 [Example 504, cyclobutylmethyl [(2R,6S,12Z,13aS,14aR,16aS)-5′-(difluoromethyl)-9′-methoxy-14a-{[(1-methylcyclopropyl)sulfonyl]carbamoyl}-5,16-dioxo-1,1′,2′,5,6,7,8,9,10,11,13a,14,14a,15,16,16a-hexadecahydrospiro[cyclopropa[e]pyrrolo[1,2-a][1,4]diazacyclopentadecine-2,3′-pyrano[2,3-c]quinolin]-6-yl]carbamate] | 11.00
8 | COc1ccc2nc(C(F)F)c3c(c2c1)CC[C@]1(C[C@H]2C(=O)N[C@]4(C(=O)NS(=O)(=O)C5(C)CC5)C[C@H]4/C=C\CCCCC[C@H](NC(=O)OC4CCC4)C(=O)N2C1)O3 [Example 508, cyclobutyl [(2R,6S,12Z,13aS,14aR,16aS)-5′-(difluoromethyl)-9′-methoxy-14a-{[(1-methylcyclopropyl)sulfonyl]carbamoyl}-5,16-dioxo-1,1′,2′,5,6,7,8,9,10,11,13a,14,14a,15,16,16a-hexadecahydrospiro[cyclopropa[e]pyrrolo[1,2-a][1,4]diazacyclopentadecine-2,3′-pyrano[2,3-c]quinolin]-6-yl]carbamate] | 11.40
9 | CCc1nc2ccc(OCCN3CCOCC3)cc2c2c1O[C@]1(CC2)C[C@H]2C(=O)N[C@]3(C(=O)NS(=O)(=O)C4(C)CC4)C[C@H]3/C=C\CCCCC[C@H](NC(=O)OC3(C)CCC3)C(=O)N2C1 [Example 509, 1-methylcyclobutyl {(2R,6S,12Z,13aS,14aR,16aS)-5′-ethyl-14a-{[(1-methylcyclopropyl)sulfonyl]carbamoyl}-9′-[2-(morpholin-4-yl)ethoxy]-5,16-dioxo-1,1′,2′,5,6,7,8,9,10,11,13a,14,14a,15,16,16a-hexadecahydrospiro[cyclopropa[e]pyrrolo[1,2-a][1,4]diazacyclopentadecine-2,3′-pyrano[2,3-c]quinolin]-6-yl}carbamate] | 11.22
10 | CCc1nc2ccc(OCCN3CCOCC3)cc2c2c1O[C@]1(CC2)C[C@H]2C(=O)N[C@]3(C(=O)NS(=O)(=O)C4(C)CC4)C[C@H]3/C=C\CCCCC[C@H](NC(=O)OCC(C)(C)C)C(=O)N2C1 [Example 510, 2,2-dimethylpropyl {(2R,6S,12Z,13aS,14aR,16aS)-5′-ethyl-14a-{[(1-methylcyclopropyl)sulfonyl]carbamoyl}-9′-[2-(morpholin-4-yl)ethoxy]-5,16-dioxo-1,1′,2′,5,6,7,8,9,10,11,13a,14,14a,15,16,16a-hexadecahydrospiro[cyclopropa[e]pyrrolo[1,2-a][1,4]diazacyclopentadecine-2,3′-pyrano[2,3-c]quinolin]-6-yl}carbamate] | 11.40
11 | COCCCOc1ccc2nc(C(F)(F)F)c3c(c2c1)CC[C@]1(C[C@H]2C(=O)N[C@]4(C(=O)NS(=O)(=O)C5(C)CC5)C[C@H]4/C=C\CCCCC[C@H](NC(=O)OC4(C)CCC4)C(=O)N2C1)O3 [Example 523, 1-methylcyclobutyl [(2R,6S,12Z,13aS,14aR,16aS)-9′-(3-methoxypropoxy)-14a-{[(1-methylcyclopropyl)sulfonyl]carbamoyl}-5,16-dioxo-5′-(trifluoromethyl)-1,1′,2′,5,6,7,8,9,10,11,13a,14,14a,15,16,16a-hexadecahydrospiro[cyclopropa[e]pyrrolo[1,2-a][1,4]diazacyclopentadecine-2,3′-pyrano[2,3-c]quinolin]-6-yl]carbamate] | 11.05
